The record followed here is ChEMBL document CHEMBL1201862, “PubChem BioAssay data set” (2004).

Some test systems named below: OVCAR-5; COLO 205; MCF7; UO-31; NCI-H460; K562; IGROV-1; MDA-MB-435; SF-539; SR; MDA-MB-231; UACC-62; NCI-H522; ACHN; MDA-N; T47D; SF-295; 786-0; SK-MEL-28; SNB-75.
Common to all, as to assay: inhibition of tumour cell growth, NCI panel, 48 h

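Protocol summary: plate cells (96-well), add compound at 5 concentrations, incubate 48 h, interpolate endpoints linearly. GI50 is the concentration that inhibits growth by half.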 Activity calls are given as the source filed them. Cut-off read from the data, not from the text of the source: active = GI50 up to about 1.1 µM and inactive = higher.

Turning to `O=P1(c2ccccc2)C2=CCC=CC2C(c2ccccc2)N1Cc1ccccc1` (centres undefined), the GI50 in the assay on OVCAR-5 was > 100 µM (inactive); in the assay on COLO 205, 15.5 µM (inactive); with MCF7, 11.2 µM (inactive); in the assay with UO-31, 12.4 µM (inactive); in the assay with NCI-H460, 13 µM (inactive); in the assay on K562, 16.1 µM (inactive). Also, the GI50 with IGROV-1 was 16.1 µM (inactive); with MDA-MB-435 it was 15.6 µM (inactive); with SF-539, 17.4 µM (inactive); in the assay with SR it was 24.2 µM (inactive); in the assay with MDA-MB-231, 15.9 µM (inactive); in the assay with UACC-62 it was 8.63 µM (inactive). Further, the GI50 in the assay on NCI-H522 was 11.4 µM (inactive); with ACHN, 16.7 µM (inactive); in the assay with MDA-N it was 20.9 µM (inactive); in the assay on T47D, 16.3 µM (inactive); in the assay on SF-295, 13.5 µM (inactive); in the assay with 786-0, 15.5 µM (inactive).

`N#CC(/N=N/c1ccccc1)c1nc2ccccc2o1` (centres undefined): the GI50 in the assay with OVCAR-5 is 56.5 µM (inactive); in the assay on COLO 205 it was 19.3 µM (inactive); in the assay with MCF7, 59.3 µM (inactive); in the assay on UO-31, 56.6 µM (inactive); with NCI-H460 it was 96.4 µM (inactive); in the assay with K562 it was 45.1 µM (inactive). Further, the GI50 in the assay with IGROV-1 was 16.1 µM (inactive); with MDA-MB-435, > 100 µM (inactive); with SF-539, 14.7 µM (inactive); in the assay on SR, 36.8 µM (inactive); in the assay with MDA-MB-231, 20.8 µM (inactive); with UACC-62, 37.7 µM (inactive). In addition, the GI50 in the assay with NCI-H522 is 27.2 µM (inactive); in the assay with ACHN, 19.3 µM (inactive); with MDA-N, 95.7 µM (inactive); in the assay on T47D it was 8.13 µM (inactive); in the assay on SF-295 it was 17.4 µM (inactive); with SK-MEL-28, > 100 µM (inactive). The GI50 in the assay with 786-0 was 21.8 µM (inactive).

For the compound `CC1=C/C(=N\NC(N)=S)C(C(O)(C(F)(F)F)C(F)(F)F)C(C)(C)C1` (centres undefined), the GI50 with OVCAR-5, with COLO 205, in the assay with MCF7, in the assay on NCI-H460, in the assay on K562 and in the assay on IGROV-1 was > 10 µM (inactive) each time. Moreover, the GI50 in the assay with MDA-MB-435, with SF-539, with SR, with MDA-MB-231, in the assay on UACC-62 and with SNB-75 was > 10 µM (inactive) each time. Further, the GI50 in the assay with NCI-H522, in the assay on ACHN, in the assay on MDA-N, with T47D, with SF-295 and in the assay with SK-MEL-28 was > 10 µM (inactive) each time. Also, in the assay with 786-0, the GI50 was > 10 µM (inactive).

For the compound `O=C1N/C(=N/N=C\c2ccccc2)N/C1=C/c1ccc(Cl)cc1`, the GI50 is 26.4 µM (inactive) in the assay with OVCAR-5; 32.2 µM (inactive) in the assay on COLO 205; 24.7 µM (inactive) in the assay with MCF7; 16.2 µM (inactive) in the assay with UO-31; 18.4 µM (inactive) in the assay with NCI-H460; 34 µM (inactive) in the assay with K562. Also, the GI50 in the assay with IGROV-1 was 14.6 µM (inactive); in the assay on MDA-MB-435, 33.3 µM (inactive); in the assay with SF-539, 23.9 µM (inactive); with SR it was 13.3 µM (inactive); in the assay on MDA-MB-231 it was 29.3 µM (inactive); with SNB-75, 18.7 µM (inactive). Besides, the GI50 in the assay on NCI-H522 was 18.5 µM (inactive); in the assay with ACHN, 13.8 µM (inactive); in the assay with MDA-N it was 34.3 µM (inactive); with T47D, 21 µM (inactive); with SF-295 it was 25.7 µM (inactive); in the assay on SK-MEL-28 it was 39 µM (inactive). For the same compound, in the assay with 786-0, the GI50 was 29.8 µM (inactive).

Take `CC(=O)Nc1ccc2[nH]c(C(=O)N3CC(CCl)c4c3cc([N+](=O)[O-])c3ccccc43)cc2c1` (centres undefined): the GI50 is 13.1 µM (inactive) in the assay on OVCAR-5; 4.98 µM (inactive) in the assay with COLO 205; 5.25 µM (inactive) in the assay with MCF7; 0.805 µM (active) in the assay on UO-31; 12.9 µM (inactive) with NCI-H460; 0.601 µM (active) with K562. For the same compound, the GI50 with IGROV-1 was 2.92 µM (inactive); with MDA-MB-435 it was 14.7 µM (inactive); in the assay with SR it was 0.349 µM (active); in the assay with MDA-MB-231, > 51.4 µM (inactive); with UACC-62 it was 4.52 µM (inactive); with SNB-75, 3.4 µM (inactive). In addition, the GI50 is 1.14 µM (inactive) with NCI-H522; 5.57 µM (inactive) in the assay on ACHN; > 57.4 µM (inactive) with MDA-N; 2.77 µM (inactive) with T47D; 7.33 µM (inactive) with SF-295; > 35.6 µM (inactive) with SK-MEL-28. The GI50 in the assay on 786-0 is 10.7 µM (inactive).

`CC1(C)CC(=O)c2c(nc3c(ccc4ccccc43)c2-c2ccc(NC(=O)CCCCCCCCC(=O)Nc3ccc(-c4c5c(nc6c4ccc4ccccc46)CC(C)(C)CC5=O)cc3)cc2)C1`: the GI50 in the assay with OVCAR-5, with COLO 205, in the assay on MCF7, with UO-31, with NCI-H460 and in the assay with K562 was > 100 µM (inactive) in each case. In addition, the GI50 in the assay on IGROV-1 was 0.017 µM (active); with MDA-MB-435, > 100 µM (inactive); with SF-539 it was > 100 µM (inactive); in the assay on SR, > 100 µM (inactive); with MDA-MB-231 it was > 100 µM (inactive); with SNB-75, > 100 µM (inactive). In addition, the GI50 in the assay with NCI-H522, in the assay on ACHN, in the assay on MDA-N, with T47D, in the assay on SF-295 and in the assay with SK-MEL-28 was > 100 µM (inactive) in each case. For the same compound, in the assay with 786-0, the GI50 was > 100 µM (inactive).

For `CCOC(=O)c1ccc2c(=O)n3c(C(=O)OCC)ccc3c(=O)n12`, the GI50 in the assay on OVCAR-5, with COLO 205, in the assay with MCF7, with UO-31, in the assay on NCI-H460 and with K562 was > 100 µM (inactive) throughout. In addition, the GI50 is > 100 µM (inactive) with IGROV-1; > 100 µM (inactive) with MDA-MB-435; > 100 µM (inactive) in the assay with SR; > 100 µM (inactive) in the assay on MDA-MB-231; > 100 µM (inactive) in the assay on UACC-62; 44.5 µM (inactive) in the assay with SNB-75. Also, the GI50 is 60.7 µM (inactive) in the assay with NCI-H522; > 100 µM (inactive) with ACHN; > 100 µM (inactive) in the assay on MDA-N; > 100 µM (inactive) with T47D; > 100 µM (inactive) in the assay with SF-295; > 100 µM (inactive) with SK-MEL-28. The GI50 in the assay with 786-0 was > 100 µM (inactive).

For `NC(=O)C1CCCN1C(=O)C(Cc1c[nH]cn1)NC(=O)C1CCCC1` (centres undefined), the GI50 in the assay with OVCAR-5, with COLO 205, in the assay on MCF7, in the assay with UO-31, with NCI-H460 and in the assay with K562 was > 100 µM (inactive) in each case. The GI50 in the assay with IGROV-1, with MDA-MB-435, in the assay on SR, in the assay on MDA-MB-231, with UACC-62 and in the assay on SNB-75 was > 100 µM (inactive) in each case. Moreover, the GI50 with NCI-H522, in the assay on ACHN, with MDA-N, with T47D, with SF-295 and in the assay with SK-MEL-28 was > 100 µM (inactive) throughout. The GI50 in the assay on 786-0 was > 100 µM (inactive).

In the case of `C=C1C[C@@H]2CC[C@@]34CC5O[C@H]6C(O[C@H]7CC[C@H](CC(=O)O[C@@H]8[C@@H](C)[C@@H]9O[C@@H]%10C[C@]%11(C[C@@H]%12O[C@]%13(C[C@H](C)[C@@H]%14O[C@@H]%15CC(C(O)CO)O[C@@H]%15C[C@@H]%14O%13)C[C@H](C)[C@@H]%12O%11)O[C@@H]%10C[C@@H]9O[C@H]8CC8O[C@@H](CC[C@@H]1O2)C[C@@H](C)C8(O)CO)O[C@@H]7[C@@H]6O3)[C@H]5O4` (some centres undefined), the GI50 in the assay on OVCAR-5 is > 1 µM (active); in the assay on COLO 205, > 0.65 µM (active); in the assay on MCF7, 0.579 µM (active); in the assay on UO-31, > 1 µM (active); in the assay on NCI-H460, 0.53 µM (active); in the assay on K562, > 0.933 µM (active). Moreover, the GI50 in the assay on IGROV-1 was 0.516 µM (active); with MDA-MB-435, 0.294 µM (active); in the assay on SR, > 0.625 µM (active); with MDA-MB-231, > 1 µM (active); with UACC-62, 0.481 µM (active); in the assay on SNB-75, 0.294 µM (active). Further, the GI50 is 0.184 µM (active) with NCI-H522; > 1 µM (active) with ACHN; 0.288 µM (active) with MDA-N; > 1 µM (active) with T47D; > 0.796 µM (active) in the assay on SF-295; > 0.959 µM (active) in the assay with SK-MEL-28. Further, the GI50 with 786-0 was 0.804 µM (active).

For `COc1nc2ccc(COc3ccc(C(=O)NC(CCC(=O)O)C(=O)O)cc3)cc2nc1OC` (centres undefined), the GI50 in the assay with OVCAR-5, with COLO 205, in the assay with MCF7, in the assay with UO-31, in the assay with NCI-H460 and in the assay on K562 was > 10 µM (inactive) throughout. For the same compound, the GI50 in the assay with IGROV-1, with MDA-MB-435, with SF-539, in the assay on SR, with MDA-MB-231 and in the assay on UACC-62 was > 10 µM (inactive) each time. Further, the GI50 in the assay on SNB-75, in the assay with NCI-H522, with ACHN, with MDA-N, with T47D and with SF-295 was > 10 µM (inactive) throughout. In addition, in the assay with SK-MEL-28, the GI50 was > 10 µM (inactive).
